Data reported in paper PMC9209747 (Neuro-oncology Advances, 2022).
Where “and” joins values, the source holds several entries; their conditions need not be identical. Equal entries are not always repeated. Entries after “also recorded” stand apart in the source; their conditions may differ. Where two headings read alike, the source gives them in different places.

Tests used:
[1] = clinical; settings: human, in vivo
Experimental: Pharmacokinetic parameters were calculated using noncompartmental methods[20] using Phoenix® WinNonlin® Version 8.1 (WinNonlin version 8.1.03530, Pheonix 64; Pharsight Corporation, Mountain View, CA). […] Oral steady-state clearance (ClSS/F) was calculated using the equation, ClSS = Dose/AUCτ.

[2] = system: newly diagnosed diffuse intrinsic pontine glioma (DIPG); assay: Clinical activity: objective response by MRI and overall survival; assay type: in vivo, human
Experimental: Disease assessments were performed at baseline prior to start of CRT, within 3–4 weeks after completion of CRT, and then every 3 months. Response assessment was determined by changes in size using the maximal 2-dimensional cross-sectional tumor measurements, T × W (product of the longest diameter of the tumor [width (W)] and its longest perpendicular diameter [transverse (T)], using either T1 or T2 weighted images, similar to historical controls.[21],[22] We defined stable disease (SD) as failing to meet criteria for either partial response (PR), complete response (CR) or progressive disease (PD). PD was defined as any appearance of new lesion(s) or an increase of 25% or more in the sum of the product of the perpendicular diameters of the target lesions. PR was defined as a decrease of 50% or more in the sum of the products of the two perpendicular diameters of the target lesion. Two objective determinations of disease status, by MRI, obtained on two consecutive determinations, separated by at least a 4-week time period, were required to determine the patient’s overall best response. Imaging was reviewed centrally for 41 response-evaluable patients.
Progressive disease was based on central imaging review.

[3] = system: γH2AX in peripheral blood mononuclear cells (PBMCs); assay: γH2AX in peripheral blood cells by flow cytometry (pharmacodynamics); assay type: in vivo, human; settings: for γ-H2AX positive cells in peripheral blood cells, Post-Day1 dosing / γ-H2AX positive cells in peripheral blood cells, Post-Day5 dosing / γ-H2AX positive cells in peripheral blood cells, Post-Day8 dosing: individual patients
Experimental: The expression of γH2AX in PBMCs was measured pre and posttreatment using flow cytometry. Effort was made to obtain two baseline (pretreatment) samples on two different days, with the first occurring within 7 days prior to CRT. Serial samples were then collected on days 1 and 5 of treatment, 6-8 hours after each dose, and day 8 prior to the day's dose. Blood samples of 1 mL were drawn into heparinized containing tubes and transferred to a Smart Tube (Thermo Fisher) followed by a 30 min incubation period in a 37°C water bath for activation per manufacture's guidelines. Samples were stored at -80°C until shipment. The frozen Smart Tubes were thawed in a 10-12°C water bath for 20 min before the red blood cells were lysed and intact cells were fixed in 90% methanol and stored at -20°C overnight. Briefly, the methanol fixed cells were washed and blocked in staining buffer (1X PBS containing 0.5 mg/ml BSA) containing TruStain FcX^TM (BioLegend) for 10 min at room temperature. Next, cells were incubated with FITC-conjugated anti-γH2AX […] antibody (BioLegend) for 1 h, washed and DNA stained with propidium iodide (2 μg/ml) before data colection by flow cytometry on CytoflexS. Percent positive γH2AX blood cells was determined by FlowJo software and described as fold-change over baseline for each patient.[16]

[4] = cited from earlier work
[5] = design: method as in ref 25 = [25]; 25. Alexander B , Supko J , Agar N , et al. ACTR-14. Phase 1 study of AZD1775 with radiation therapy (RT) and Temozolomide (TMZ) in patients with newly diagnosed gliobasltoma (GBM) and evaluation of i; settings: adavosertib 200 mg/day (approximately 115 mg/m^2/day) in combination with temozolomide; cited from earlier work
[6] = system: pediatric glioma cell lines including a DIPG derived cell line; design: method as in PMID 24305702; settings: effect enhanced by radiation; cited from earlier work
[7] = system: pediatric high-grade glioma including DIPG; design: method as in PMID 24305702, PMID 23270927; settings: in combination with radiation therapy; cited from earlier work
[8] = system: adult glioblastoma multiforme (GBM); design: method as in ref 3 (Mir et al.); settings: combining radiation therapy with adavosertib; ref 3 (Mir et al.); cited from earlier work
[9] = system: γH2AX in tumor tissue; design: method as in our preclinical studies; settings: treated mice compared to control animals; ref our preclinical studies; cited from earlier work
[10] = cited from earlier work; remark: listed apart in the source
[11] = 41 patients evaluable for objective response, with CRT
[12] = 50 mg/m², alternating with weeks of QOD dosing

C=CCn1c(=O)c2cnc(Nc3ccc(N4CCN(C)CC4)cc3)nc2n1-c1cccc(C(C)(C)O)n1 [adavosertib]
AUC(0-t) ([1]; 160 mg/m2, AUC0-8h): 8.47 ± 2.36 µM·h
Cmax ([1]; 160 mg/m2, Cmax): 1690 ± 670 nM
Tmax ([1]; 160 mg/m2, Tmax): 2.2 ± 1.1 h
AUC ([1]; 200 mg/m2): 16.4 ± 7.76 µM·h
AUC0-8h ([1]; 200 mg/m2): 6.904 ± 2.758 µM·h
AUC(0-inf) ([1]; 200 mg/m2): 12.2 ± 1.7 µM·h
CLss (steady-state clearance) ([1]; 200 mg/m2): 33.4 ± 25.8 L/hr/m^2
Cmax ([1]; 200 mg/m2): 1650 ± 1050 nM
Tmax ([1]; 200 mg/m2): 2.5 ± 2.1 h
half-life ([1]; 200 mg/m2): 5.6 ± 1.3 h
AUC(0-t) ([1]; 200 mg/m2, AUC0-8h): 9.63 ± 4.22 µM·h
Cmax ([1]; 200 mg/m2, Cmax): 2020 ± 780 nM
Tmax ([1]; 200 mg/m2, Tmax): 2.6 ± 1.4 h
Mean oral clearance ([1]; po): 46.9 L/h
Tmax ([1]; po, Tmax): 2 h
Progressive disease (PD) as best overall response, number of patients [2, 11]: 8
Progressive disease (PD) as best overall response, share of patients [2, 11]: 19.5%
Stable disease (SD) as best overall response, number of patients [2, 11]: 33
Stable disease (SD) as best overall response, share of patients [2, 11]: 80.5%
Best response by dose level ([2]; Fisher exact P = .82): no significant difference in best response by dose level
Median overall survival (OS) ([2]; Kaplan Meier, adavosertib with CRT, all dose levels): 11.8 months
OS compared to historical control ([2]; historical cohort ACNS0126 and ACNS0222, log-rank test): did not differ from historical control; also recorded: no significant difference in median OS; also recorded: not superior
γ-H2AX positive cells in peripheral blood cells, Post-Day1 dosing ([3]; 50 mg/m², During Weeks 1-6): 1.42 and 1.29
γ-H2AX positive cells in peripheral blood cells, Post-Day5 dosing ([3]; 50 mg/m², During Weeks 1-6): 1.42 and 0.32
γ-H2AX positive cells in peripheral blood cells, Post-Day8 dosing ([3]; 50 mg/m², During Weeks 1-6): 0.68 and 0.11
γ-H2AX positive cells in peripheral blood cells, Post-Day1 dosing ([3]; 50 mg/m², alternating weeks): 2.74
γ-H2AX positive cells in peripheral blood cells, Post-Day5 dosing ([3]; 50 mg/m², alternating weeks): 2.03
γ-H2AX positive cells in peripheral blood cells, Post-Day8 dosing ([3]; 50 mg/m², alternating weeks): 7.24
γ-H2AX positive cells in peripheral blood cells, Post-Day1 dosing [3, 12]: 3.17 and 1.03 and 1.31 and 0.12
γ-H2AX positive cells in peripheral blood cells, Post-Day5 dosing [3, 12]: 7.63 and 0.70 and 4.90 and 0.15
γ-H2AX positive cells in peripheral blood cells, Post-Day8 dosing [3, 12]: 1.08 and 2.90 and 2.30 and 0.19
γ-H2AX positive cells in peripheral blood cells, Post-Day1 dosing ([3]; 95 mg/m², During Weeks 1-6): 2.48 and 3.42 and 1.89
γ-H2AX positive cells in peripheral blood cells, Post-Day5 dosing ([3]; 95 mg/m², During Weeks 1-6): 6.31 and 0.55 and 1.63
γ-H2AX positive cells in peripheral blood cells, Post-Day8 dosing ([3]; 95 mg/m², During Weeks 1-6): 4.92 and 0.04 and 2.75
γ-H2AX positive cells in peripheral blood cells, Post-Day1 dosing ([3]; 130 mg/m², During Weeks 1-6): 0.26 and 0.38 and 0.61 and 0.16 and 10.60 and 0.31
γ-H2AX positive cells in peripheral blood cells, Post-Day5 dosing ([3]; 130 mg/m², During Weeks 1-6): 0.41 and 0.33 and 2.47 and 0.43 and 3.75 and 0.06
γ-H2AX positive cells in peripheral blood cells, Post-Day8 dosing ([3]; 130 mg/m², During Weeks 1-6): 0.48 and 1.08 and 16.50 and 0.50 and 1.49 and 0.00
γ-H2AX positive cells in peripheral blood cells, Post-Day1 dosing ([3]; 160 mg/m², During Weeks 1-6): 0.96 and 7.75 and 0.95 and 2.25 and 6.62
γ-H2AX positive cells in peripheral blood cells, Post-Day5 dosing ([3]; 160 mg/m², During Weeks 1-6): 5.27 and 0.13 and 1.86 and 0.31 and 5.28
γ-H2AX positive cells in peripheral blood cells, Post-Day8 dosing ([3]; 160 mg/m², During Weeks 1-6): 5.59 and 5.55 and 0.95 and 3.37 and 3.25
γ-H2AX positive cells in peripheral blood cells, Post-Day1 dosing ([3]; 200 mg/m², During Weeks 1-6): 0.88 and 2.45 and 17.90 and 0.00
γ-H2AX positive cells in peripheral blood cells, Post-Day5 dosing ([3]; 200 mg/m², During Weeks 1-6): 3.75 and 3.61 and 16.90 and 0.01 and 6.11
γ-H2AX positive cells in peripheral blood cells, Post-Day8 dosing ([3]; 200 mg/m², During Weeks 1-6): 0.40 and 2.17 and 14.70 and 0.01 and 5.81
Change of γH2AX in PBMCs compared to baseline ([3]; any dose level, with CRT): no significant changes compared to baseline
Elimination half-life (t1/2) ([4]; adult patients): 9 to 11 h
Tmax ([4]; adult patients): 4 h
Mean oral clearance ([4]; fasting adults, ref a recent report of a food-effect study): 40.85 L/h
Toxicity in adults with newly diagnosed glioblastoma [5]: significant toxicity
Anti-proliferative effect in clonogenic survival assays [6]: dose-dependent anti-proliferative effects
Survival in murine models [7]: prolongs survival
Survival in orthotopic GBM models [8]: significantly improved survival
γH2AX expression in tumor tissue [9]: increased expression of γH2AX
BSA-adjusted plasma clearance ([10]; earlier pediatric COG study): 32.5 L/hr/m^2
MTD of adavosertib ([10]; in combination with irinotecan 90 mg/m^2/dose, orally daily for 5 days on a 21 day cycle): 85 mg/m^2/dose
